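Exposure lasted 48 hours, with cells grown in 96-well plates and compounds tested at five concentrations. Here, GI50 denotes the concentration required for 50% inhibition of growth. TGI is the concentration that stops growth completely.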

Some test systems named below: SF-539 CNS; SW-620 colon; SK-OV-3 ovarian; SK-MEL-28 melanoma; TK-10 renal; NCI-H522 lung; KM12 colon; OVCAR-5 ovarian; HL-60(TB) leukemia; MDA-MB-435.
Common to all, as to test: NCI tumour cell line growth inhibition, 48 h

Regarding `C/C(=C\C1=C(Cl)C(=O)c2ccccc2C1=O)C(=O)O`, the GI50 is 17.7 µM in the assay on SF-539 CNS; 21.7 µM in the assay on SW-620 colon; 19 µM in the assay on SK-OV-3 ovarian; 20.2 µM in the assay with SK-MEL-28 melanoma; 23.3 µM in the assay on TK-10 renal; 11.9 µM with NCI-H522 lung. In addition, the GI50 with KM12 colon is 18.1 µM; with OVCAR-5 ovarian it was 22.5 µM; with HL-60(TB) leukemia, 25.4 µM; in the assay on MDA-MB-435, 19.4 µM. Also, the TGI with SF-539 CNS came to 31.9 µM; in the assay on SW-620 colon it was 37.4 µM; in the assay on SK-OV-3 ovarian, 33.1 µM; in the assay on SK-MEL-28 melanoma it was 34.6 µM; in the assay on TK-10 renal, 38.1 µM; in the assay on NCI-H522 lung, 26.9 µM. For the same molecule, the TGI in the assay on KM12 colon is 33.7 µM; in the assay with OVCAR-5 ovarian, 37.4 µM; in the assay on HL-60(TB) leukemia, 63.5 µM; in the assay with MDA-MB-435 it was 34.8 µM.
Regarding `O=P(NC12CC3CC(CC(C3)C1)C2)(N1CC1)N1CC1`, the TGI in the assay on SF-539 CNS was 75.5 µM; in the assay on SW-620 colon, more than 100 µM; in the assay with SK-OV-3 ovarian, more than 100 µM; with SK-MEL-28 melanoma, more than 100 µM; with TK-10 renal it was more than 100 µM; in the assay on NCI-H522 lung, more than 100 µM. The TGI with KM12 colon was more than 100 µM; in the assay on OVCAR-5 ovarian, more than 100 µM; with HL-60(TB) leukemia it was 98.9 µM; in the assay with MDA-MB-435, more than 100 µM.
For `CC/C=C\C/C=C\C[C@H](O)C/C=C1/C(=O)C=C[C@@H]1C/C=C\CCCC(=O)O`, the GI50 in the assay with SF-539 CNS is 3.85 µM; in the assay on SW-620 colon it was 4.46 µM; in the assay with SK-OV-3 ovarian it was 16 µM; in the assay on SK-MEL-28 melanoma, 3.83 µM; in the assay on TK-10 renal, 8.06 µM; in the assay on NCI-H522 lung it was 1.71 µM. Further, the GI50 in the assay on KM12 colon is 3.06 µM; in the assay on OVCAR-5 ovarian, 7.22 µM; in the assay on HL-60(TB) leukemia it was 2.93 µM; with MDA-MB-435 it was 3.1 µM. Moreover, the TGI was 15.2 µM in the assay with SF-539 CNS; 70.6 µM in the assay with SW-620 colon; 34.7 µM with SK-OV-3 ovarian; 13.3 µM with SK-MEL-28 melanoma; 21.1 µM in the assay on TK-10 renal; 3.78 µM with NCI-H522 lung. Also, the TGI in the assay on KM12 colon is 11.5 µM; in the assay on OVCAR-5 ovarian, 30 µM; with HL-60(TB) leukemia, 10.1 µM; in the assay with MDA-MB-435 it was 12 µM.
For `CN(C)c1ccc(/C=C(\C#N)c2nc3ccccc3n2C)cc1`, the GI50 in the assay on SF-539 CNS is 2.24 µM; in the assay with SW-620 colon it was 0.921 µM; with SK-OV-3 ovarian, 4.09 µM; in the assay with SK-MEL-28 melanoma, 8.8 µM; with TK-10 renal, 3.24 µM; with NCI-H522 lung, 1.7 µM. The GI50 is 1.59 µM with KM12 colon, 8.49 µM with OVCAR-5 ovarian, 3.77 µM in the assay with HL-60(TB) leukemia and 0.251 µM in the assay on MDA-MB-435. Moreover, the TGI with SF-539 CNS was 6.94 µM; with SW-620 colon, more than 60.1 µM; with SK-OV-3 ovarian, 71.3 µM; with SK-MEL-28 melanoma, more than 78.2 µM; with TK-10 renal, 67.9 µM; in the assay with NCI-H522 lung it was 16 µM. The TGI in the assay on KM12 colon is 18.4 µM; in the assay with OVCAR-5 ovarian it was 49.8 µM; with HL-60(TB) leukemia, more than 31.4 µM; with MDA-MB-435, 3.13 µM.
